Where “and” joins values, the source holds several entries; their conditions need not be identical. Equal entries are not always repeated. Inconclusive results and toxic doses are left out. Rule as the data show it: active = T/C of 150% or more; inactive = T/C below 125%.
Test system: L1210 leukemia ip in BDF1 mice, survival T/C
Assay: NCI In Vivo Anticancer Drug Screen. Data for tumor model L1210 Leukemia (intraperitoneal) in B6D2F1 (BDF1) mice
Details: endpoint: mean survival time, higher = longer survival
Procedure, shortened: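 Survival endpoint. Drug-treated group vs vehicle group, expressed as T divided by C. Tumor passaged by transplantation.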

[1] = dose: 100.0 mg/kg/injection, schedule: Q01DX001 (ip), vehicle: Klucel (hydroxypropylcellulose) (HPC)
[2] = dose: 200.0 mg/kg/injection, schedule: Q01DX001 (ip), vehicle: Klucel (hydroxypropylcellulose) (HPC)
[3] = dose: 100.0 mg/kg/injection, schedule: Q04DX002 (ip), vehicle: Klucel (hydroxypropylcellulose) (HPC)
[4] = dose: 200.0 mg/kg/injection, schedule: Q04DX002 (ip), vehicle: Klucel (hydroxypropylcellulose) (HPC)
[5] = dose: 100.0 mg/kg/injection, schedule: Q04DX002 (ip), vehicle: saline with Tween-80
[6] = dose: 200.0 mg/kg/injection, schedule: Q04DX002 (ip), vehicle: saline with Tween-80
[7] = dose: 100.0 mg/kg/injection, schedule: Q01DX009 (ip), vehicle: saline with Tween-80
[8] = dose: 100.0 mg/kg/injection, schedule: Q04DX003 (ip), vehicle: saline with Tween-80
[9] = dose: 200.0 mg/kg/injection, schedule: Q01DX009 (ip), vehicle: saline with Tween-80
[10] = dose: 200.0 mg/kg/injection, schedule: Q04DX003 (ip), vehicle: saline with Tween-80
[11] = dose: 400.0 mg/kg/injection, schedule: Q01DX009 (ip), vehicle: saline with Tween-80
[12] = dose: 400.0 mg/kg/injection, schedule: Q04DX003 (ip), vehicle: saline with Tween-80
[13] = dose: 100.0 mg/kg/injection, schedule: Q01DX001 (ip), vehicle: saline
[14] = dose: 200.0 mg/kg/injection, schedule: Q01DX001 (ip), vehicle: saline
[15] = dose: 400.0 mg/kg/injection, schedule: Q01DX001 (ip), vehicle: saline
[16] = dose: 400.0 mg/kg/injection, schedule: Q04DX002 (ip), vehicle: Klucel (hydroxypropylcellulose) (HPC)
[17] = dose: 400.0 mg/kg/injection, schedule: Q04DX002 (ip), vehicle: saline with Tween-80

Measured: T/C

COC1OC2COC(c3ccccc3)OC2C(O)C1NC(C)=O (centres undefined)
inactive: [1] 95 % of control | dose: 100.0 mg/kg/injection, schedule: Q01DX001 (ip), vehicle: saline with Tween-80 101 % of control | [2] 104 % of control | dose: 200.0 mg/kg/injection, schedule: Q01DX001 (ip), vehicle: saline with Tween-80 97 % of control | dose: 400.0 mg/kg/injection, schedule: Q01DX001 (ip), vehicle: saline with Tween-80 98 % of control

O=C(CNC1=NCCN1)Nc1ccc(NC(=O)c2ccc(C(=O)Nc3ccc(NC(=O)CNC4=NCCN4)cc3)cc2)cc1
inactive: dose: 30.0 mg/kg/injection, schedule: Q01DX Z (ip), vehicle: water 114 % of control | dose: 40.0 mg/kg/injection, schedule: Q01DX Z (ip), vehicle: water 120 % of control | dose: 50.0 mg/kg/injection, schedule: Q01DX Z (ip), vehicle: water 121 % of control | dose: 62.5 mg/kg/injection, schedule: Q01DX Z (ip), vehicle: water 124 % of control | dose: 125.0 mg/kg/injection, schedule: Q01DX Z (ip), vehicle: water 118 % of control | dose: 250.0 mg/kg/injection, schedule: Q01DX Z (ip), vehicle: water 109 % of control | dose: 500.0 mg/kg/injection, schedule: Q01DX Z (ip), vehicle: water 106 % of control

COc1ccc(OC)c(/C=C/c2ccc(NC(=O)Nc3ccccc3Cl)cc2)c1
inactive: dose: 12.5 mg/kg/injection, schedule: Q01DX009 (ip), vehicle: Klucel (hydroxypropylcellulose) (HPC) 93 % of control | dose: 25.0 mg/kg/injection, schedule: Q01DX009 (ip), vehicle: Klucel (hydroxypropylcellulose) (HPC) 89 % of control | dose: 50.0 mg/kg/injection, schedule: Q01DX009 (ip), vehicle: Klucel (hydroxypropylcellulose) (HPC) 91 % of control | [3] 88 % of control | dose: 200.0 mg/kg/injection, schedule: Q01DX009 (ip), vehicle: Klucel (hydroxypropylcellulose) (HPC) 93 % of control and 86 % of control | [4] 88 % of control | dose: 300.0 mg/kg/injection, schedule: Q01DX009 (ip), vehicle: Klucel (hydroxypropylcellulose) (HPC) 106 % of control and 89 % of control

CCOC(=O)c1c(C)[nH]c(C)c1-c1ccccc1
inactive: dose: 100.0 mg/kg/injection, schedule: Q04DX003 (ip), vehicle: Klucel (hydroxypropylcellulose) (HPC) 112 % of control | dose: 200.0 mg/kg/injection, schedule: Q04DX003 (ip), vehicle: Klucel (hydroxypropylcellulose) (HPC) 104 % of control | dose: 400.0 mg/kg/injection, schedule: Q04DX003 (ip), vehicle: Klucel (hydroxypropylcellulose) (HPC) 105 % of control

COc1cc(/C=N\N=C(/C)c2ccc(C)cc2C)cc(OC)c1OC
inactive: [5] 88 % of control | [6] 92 % of control

C=CC1CC1(C(=O)O)C(=O)O (centres undefined)
inactive: [7] 93 % of control | [8] 98 % of control | [9] 96 % of control | [10] 98 % of control | [11] 90 % of control | [12] 93 % of control

Cc1nc(N)[nH]c(=O)c1CCCNC(=O)c1ccccc1
inactive: [1] 94 % of control | [2] 91 % of control | dose: 400.0 mg/kg/injection, schedule: Q01DX001 (ip), vehicle: Klucel (hydroxypropylcellulose) (HPC) 87 % of control

CC(C)(C)NP(c1ccccc1)c1ccccc1
inactive: [13] 101 % of control | [14] 104 % of control | [15] 98 % of control

CC12CCC(CC(=O)O1)C2(C)C (centres undefined)
inactive: dose: 75.0 mg/kg/injection, schedule: Q01DX001 (ip), vehicle: saline 114 % of control

O=[Se](c1ccccc1)c1ccccc1
inactive: dose: 25.0 mg/kg/injection, schedule: Q04DX002 (ip), vehicle: Klucel (hydroxypropylcellulose) (HPC) 103 % of control | dose: 50.0 mg/kg/injection, schedule: Q04DX002 (ip), vehicle: Klucel (hydroxypropylcellulose) (HPC) 94 % of control | [3] 87 % of control

[S-]c1n[n+](-c2ccccc2)cs1
inactive: [13] 97 % of control | [14] 95 % of control | [15] 92 % of control

Nc1cc(Cl)c(S(=O)(=O)O)cc1Cl
inactive: dose: 50.0 mg/kg/injection, schedule: Q01DX009 (ip), vehicle: saline with Tween-80 90 % of control | [13] 95 % of control | [7] 107 % of control | [3] 100 % of control | [14] 86 % of control | [9] 97 % of control | [4] 91 % of control | [16] 88 % of control

COc1ccc(C(=O)NC(=S)Nc2ccc(CCO)cc2)cc1
inactive: [7] 98 % of control and 101 % of control | [5] 98 % of control | [8] 96 % of control | [9] 101 % of control and 102 % of control | [6] 100 % of control | [10] 94 % of control | [11] 94 % of control and 104 % of control | [17] 98 % of control | [12] 92 % of control

CC(=O)NNC(=O)c1cccnc1
inactive: dose: 100.0 mg/kg/injection, schedule: Q01DX001 (ip), vehicle: water 95 % of control | dose: 100.0 mg/kg/injection, schedule: Q01DX009 (ip), vehicle: water 95 % of control | dose: 200.0 mg/kg/injection, schedule: Q01DX001 (ip), vehicle: water 104 % of control | dose: 200.0 mg/kg/injection, schedule: Q01DX009 (ip), vehicle: water 101 % of control | dose: 400.0 mg/kg/injection, schedule: Q01DX001 (ip), vehicle: water 101 % of control | dose: 400.0 mg/kg/injection, schedule: Q01DX009 (ip), vehicle: water 116 % of control | dose: 800.0 mg/kg/injection, schedule: Q01DX009 (ip), vehicle: water 116 % of control

O=C(O)CCCC1CCCCc2ccccc21 (centres undefined)
inactive: dose: 100.0 mg/kg/injection, schedule: Q04DX003 (ip), vehicle: acetone 103 % of control | dose: 200.0 mg/kg/injection, schedule: Q04DX003 (ip), vehicle: acetone 100 % of control | dose: 400.0 mg/kg/injection, schedule: Q04DX003 (ip), vehicle: acetone 110 % of control

CCCCCOC(=O)C(O)C(C)(Cl)c1ccccc1 (centres undefined)
inactive: [3] 100 % of control | [4] 111 % of control | [16] 100 % of control

CC(=O)Nc1ccc(NC(=O)Nc2ccccc2C(F)(F)F)cc1
inactive: dose: 100.0 mg/kg/injection, schedule: Q01DX001 (ip), vehicle: carboxymethylcellulose (CMC) 94 % of control and 90 % of control | dose: 100.0 mg/kg/injection, schedule: Q01DX009 (ip), vehicle: carboxymethylcellulose (CMC) 93 % of control and 97 % of control | dose: 100.0 mg/kg/injection, schedule: Q04DX002 (ip), vehicle: carboxymethylcellulose (CMC) 95 % of control and 102 % of control | dose: 100.0 mg/kg/injection, schedule: Q04DX003 (ip), vehicle: carboxymethylcellulose (CMC) 100 % of control and 117 % of control | dose: 200.0 mg/kg/injection, schedule: Q01DX001 (ip), vehicle: carboxymethylcellulose (CMC) 94 % of control and 90 % of control | dose: 200.0 mg/kg/injection, schedule: Q01DX009 (ip), vehicle: carboxymethylcellulose (CMC) 94 % of control and 96 % of control | dose: 200.0 mg/kg/injection, schedule: Q04DX002 (ip), vehicle: carboxymethylcellulose (CMC) 96 % of control and 92 % of control | dose: 200.0 mg/kg/injection, schedule: Q04DX003 (ip), vehicle: carboxymethylcellulose (CMC) 95 % of control and 99 % of control | dose: 400.0 mg/kg/injection, schedule: Q01DX001 (ip), vehicle: carboxymethylcellulose (CMC) 97 % of control | dose: 400.0 mg/kg/injection, schedule: Q01DX009 (ip), vehicle: carboxymethylcellulose (CMC) 98 % of control and 91 % of control | dose: 400.0 mg/kg/injection, schedule: Q04DX002 (ip), vehicle: carboxymethylcellulose (CMC) 86 % of control | dose: 400.0 mg/kg/injection, schedule: Q04DX003 (ip), vehicle: carboxymethylcellulose (CMC) 91 % of control

N#CC(c1cccnc1)N1CCOCC1 (centres undefined)
inactive: dose: 25.0 mg/kg/injection, schedule: Q04DX002 (ip), vehicle: saline with Tween-80 103 % of control | dose: 50.0 mg/kg/injection, schedule: Q04DX002 (ip), vehicle: saline with Tween-80 100 % of control | [5] 96 % of control

COC(=O)c1oc2cc(Cl)cnc2c1C(=O)OC
inactive: [5] 97 % of control | [6] 97 % of control | [17] 94 % of control

O=C(Nc1ccccc1Cl)Nc1ccccc1[N+](=O)[O-]
inactive: dose: 100.0 mg/kg/injection, schedule: Q04DX002 (ip), vehicle: saline + alcohol 111 % of control | dose: 200.0 mg/kg/injection, schedule: Q04DX002 (ip), vehicle: saline + alcohol 100 % of control | dose: 400.0 mg/kg/injection, schedule: Q04DX002 (ip), vehicle: saline + alcohol 96 % of control

From PubChem BioAssay AID248 (DTP/NCI, 2004)
